System: larvae of the mustard beetle (Phaedon cochleariae)
Experiment: Phaedon larvae test (Example B)
Assay type: in vivo
Conditions: 1000 ppm, after 7 days, cabbage leaves dipped
Description: (§1) Phaedon larvae Test [table] To produce a suitable preparation of active compound, 1 part by weight of active compound is mixed with the stated amounts of solvent and emulsifier, and the concentrate is diluted with emulsifier-containing water to the desired concentration. Cabbage leaves (Brassica oleracea) are treated by being dipped into the preparation of active compound at the desired concentration and are populated with larvae of the mustard beetle (Phaedon cochleariae) while the leaves are still moist. After the desired period of time, the kill in % is determined. 100% means that all of the beetle larvae have been killed: 0% denotes that no beetle larvae have been killed.

SMILES	kill
N#Cc1cccc(C2=NN(C(=O)Nc3ccc(C(F)(F)F)cc3)CCC2n2cc(Cl)cn2)c1 (stereo not shown) [Example 16]	100%
O=C(Nc1ccc(Cl)cc1)N1CCC(n2cc(Cl)cn2)C(c2cccc(OC(F)(F)F)c2)=N1 (stereo not shown) [Example 10]	100%
O=C(Nc1ccc(Cl)cc1)N1CCC(n2cc(Cl)cn2)C(c2cccc(Br)c2)=N1 (stereo not shown) [Example 11]	100%
O=C(Nc1ccc(C(F)(F)F)cc1)N1CCC(n2cc(Cl)cn2)C(c2cccc(F)c2)=N1 (stereo not shown) [Example 4]	100%
O=C(Nc1ccc(OC(F)(F)F)cc1)N1CCC(n2cc(Cl)cn2)C(c2cccc(Br)c2)=N1 (stereo not shown) [Example 12]	100%
O=C(Nc1ccc(Cl)cc1)N1CCC(n2cc(Cl)cn2)C(c2cccc(Cl)c2)=N1 (stereo not shown) [Example 8]	100%

System: caterpillars of the army worm (Spodoptera frugiperda)
Experiment: Spodoptera frugiperda test (Example E)
Assay type: in vivo
Conditions: 1000 ppm, after 7 days, cabbage leaves dipped
Description: as §1, with “Spodoptera frugiperda” for “Phaedon larvae”, “caterpillars” for “larvae”, “army worm (Spodoptera frugiperda)” for “mustard beetle (Phaedon cochleariae)”, “caterpillars” for “beetle larvae”

SMILES	kill
N#Cc1cccc(C2=NN(C(=O)Nc3ccc(C(F)(F)F)cc3)CCC2n2cc(Cl)cn2)c1 (stereo not shown) [Example 16]	100%
O=C(Nc1ccc(Cl)cc1)N1CCC(n2cc(Cl)cn2)C(c2cccc(OC(F)(F)F)c2)=N1 (stereo not shown) [Example 10]	100%
O=C(Nc1ccc(Cl)cc1)N1CCC(n2cc(Cl)cn2)C(c2cccc(Br)c2)=N1 (stereo not shown) [Example 11]	100%
O=C(Nc1ccc(C(F)(F)F)cc1)N1CCC(n2cc(Cl)cn2)C(c2cccc(F)c2)=N1 (stereo not shown) [Example 4]	100%
O=C(Nc1ccc(OC(F)(F)F)cc1)N1CCC(n2cc(Cl)cn2)C(c2cccc(Br)c2)=N1 (stereo not shown) [Example 12]	100%
O=C(Nc1ccc(Cl)cc1)N1CCC(n2cc(Cl)cn2)C(c2cccc(Cl)c2)=N1 (stereo not shown) [Example 8]	100%

System: not given
Experiment: not given
Conditions: not given

SMILES	logP (pH 2)/ m.p. [° C.] (logP part)	logP (pH 2)
N#Cc1cnn(C2CCN(C(=O)Nc3ccc(SC(F)(F)F)cc3)N=C2c2cccc(Cl)c2)c1 (stereo not shown) [Example 21]	4.53/194	
N#Cc1cnn(C2CCNN=C2c2cccc(Cl)c2)c1 (stereo not shown) [II-7]		2.40
N#Cc1cnn(C2CCN(C(=O)Nc3ccc(Cl)cc3)N=C2c2cccc(Br)c2)c1 (stereo not shown) [Example 22]	3.96/213	
N#Cc1ccc(NC(=O)N2CCC(n3cc(Cl)cn3)C(c3cccc(Cl)c3)=N2)cc1 (stereo not shown) [Example 20]	3.77	
N#Cc1cccc(C2=NN(C(=O)Nc3ccc(SC(F)(F)F)cc3)CCC2n2cc(C#N)cn2)c1 (stereo not shown) [Example 26]	3.94/242	
O=C(c1cccc(Cl)c1)C(CCCl)n1cc(Cl)cn1 (stereo not shown) [IV-4]		3.68
O=C(c1cccc(OC(F)(F)F)c1)C(Br)CCCl (stereo not shown) [Example V-3]		4.19
O=C(Nc1ccc(Cl)cc1)N1CCC(n2cc(Cl)cn2)C(c2cccc(Br)c2)=N1 (stereo not shown) [Example 11]	4.58/198	

Results, then the molecule that gave them:

logP (pH 2)/ m.p. [° C.] (logP part)	logP (pH 2)	SMILES
4.03/229		N#Cc1cccc(C2=NN(C(=O)Nc3ccc(C(F)(F)F)cc3)CCC2n2cc(Cl)cn2)c1 (stereo not shown) [Example 16]
4.73/158		O=C(Nc1ccc(Cl)cc1)N1CCC(n2cc(Cl)cn2)C(c2cccc(OC(F)(F)F)c2)=N1 (stereo not shown) [Example 10]
4.37/194		O=C(Nc1ccc(C(F)(F)F)cc1)N1CCC(n2cc(Cl)cn2)C(c2cccc(F)c2)=N1 (stereo not shown) [Example 4]
4.82/197		O=C(Nc1ccc(OC(F)(F)F)cc1)N1CCC(n2cc(Cl)cn2)C(c2cccc(Br)c2)=N1 (stereo not shown) [Example 12]
4.49/203		O=C(Nc1ccc(Cl)cc1)N1CCC(n2cc(Cl)cn2)C(c2cccc(Cl)c2)=N1 (stereo not shown) [Example 8]

Reference: patent US20050150764A1 (priority 2001, published 2005)
